# Assay results from ChEMBL document CHEMBL3045398, “Fungicidal activities of cyflufenamid against various plant-pathogenic fungi” (J Pestic Sci, 2006).
# Activity calls are given as the source filed them. The calls are words filed in the database; no cut-off is given here.
# Experiments:
# Pyricularia oryzae = test: Fungicidal activity against Magnaporthe oryzae assessed as inhibition of mycelial growth measured after 3 to 20 days by agar dilution method; assay type: functional, organism-based
# Oculimacula yallundae = test: Fungicidal activity against Oculimacula yallundae assessed as inhibition of mycelial growth measured after 3 to 20 days by agar dilution method; assay type: functional, organism-based
# Phytophthora infestans = test: Fungicidal activity against Phytophthora infestans assessed as inhibition of mycelial growth measured after 3 to 20 days by agar dilution method; assay type: functional, organism-based
# Phomopsis = test: Fungicidal activity against Phomopsis sp. assessed as inhibition of mycelial growth measured after 3 to 20 days by agar dilution method; assay type: functional, organism-based
# Pestalotia longiseta = test: Fungicidal activity against Pestalotia longiseta assessed as inhibition of mycelial growth measured after 3 to 20 days by agar dilution method; assay type: functional, organism-based, Pestalotiopsis longiseta
# Penicillium italicum = test: Fungicidal activity against Penicillium italicum assessed as inhibition of mycelial growth measured after 3 to 20 days by agar dilution method; assay type: functional, organism-based
# Monilinia fructicola [1] = test: Fungicidal activity against Monilinia fructicola assessed as inhibition of mycelial growth measured after 3 to 20 days by agar dilution method; assay type: functional, organism-based
# Helicobasidium mompa = test: Fungicidal activity against Helicobasidium mompa assessed as inhibition of mycelial growth measured after 3 to 20 days by agar dilution method; assay type: functional, organism-based
# [2] = tested on: Blumeria graminis f. sp. tritici; test: Fungicidal activity against Blumeria graminis f. sp. tritici on wheat leaves assessed as spore formation measured at 12.5 ppm; assay type: functional
# Monilinia fructicola [3] = test: Fungicidal activity against Monilinia fructicola assessed as vacuolated hyphae measured by Transmission electron microscopy; assay type: functional, organism-based
# Monilinia fructicola [4] = test: Fungicidal activity against Monilinia fructicola assessed as rounded hyphae and various size vessicles measured by Transmission electron microscopy; assay type: functional, organism-based
# Monilinia fructicola [5] = test: Fungicidal activity against Monilinia fructicola assessed as large septa measured by Transmission electron microscopy; assay type: functional, organism-based
# Monilinia fructicola [6] = test: Fungicidal activity against Monilinia fructicola assessed as number and shape of mitochondria measured by Transmission electron microscopy relative to untreated control; assay type: functional, organism-based
# [7] = tested on: Blumeria graminis f. sp. tritici; test: Fungicidal activity against Blumeria graminis f. sp. tritici on wheat leaves assessed as spore formation measured at 0.2 ppm; assay type: functional
# [8] = tested on: Blumeria graminis f. sp. tritici; test: Fungicidal activity against Blumeria graminis f. sp. tritici on wheat leaves assessed as spore formation measured at 0.8 ppm; assay type: functional
# [9] = tested on: Blumeria graminis f. sp. tritici; test: Fungicidal activity against Blumeria graminis f. sp. tritici on wheat leaves assessed as spore formation measured at 3.1 ppm; assay type: functional
# [10] = tested on: Blumeria graminis f. sp. tritici; test: Fungicidal activity against Blumeria graminis f. sp. tritici on wheat leaves assessed as rate of appressorium formation measured at 0.2 ppm after 76 hr; assay type: functional
# [11] = tested on: Blumeria graminis f. sp. tritici; test: Fungicidal activity against Blumeria graminis f. sp. tritici on wheat leaves assessed as rate of appressorium formation measured at 0.8 ppm after 76 hr; assay type: functional
# [12] = tested on: Blumeria graminis f. sp. tritici; test: Fungicidal activity against Blumeria graminis f. sp. tritici on wheat leaves assessed as rate of appressorium formation measured at 3.1 ppm after 76 hr; assay type: functional
# [13] = tested on: Blumeria graminis f. sp. tritici; test: Fungicidal activity against Blumeria graminis f. sp. tritici on wheat leaves assessed as rate of appressorium formation measured at 12.5 ppm after 76 hr; assay type: functional
# [14] = tested on: Blumeria graminis f. sp. tritici; test: Fungicidal activity against Blumeria graminis f. sp. tritici on wheat leaves assessed as rate of appressorium formation measured at 12.5 ppm after 24 hr (reference value: 89.7 +/- 4%); assay type: functional
# [15] = tested on: Blumeria graminis f. sp. tritici; test: Fungicidal activity against Blumeria graminis f. sp. tritici on wheat leaves assessed as rate of appressorium formation measured at 12.5 ppm after 12 hr (reference value: 22.3 +/- 10.2%); assay type: functional
# [16] = tested on: Blumeria graminis f. sp. tritici; test: Fungicidal activity against Blumeria graminis f. sp. tritici on wheat leaves assessed as rate of appressorium formation measured at 12.5 ppm after 6 hr (reference value: 3.5 +/- 2.5%); assay type: functional
# [17] = tested on: Blumeria graminis f. sp. tritici; test: Fungicidal activity against Blumeria graminis f. sp. tritici on wheat leaves assessed as rate of appressorium formation measured at 12.5 ppm after 3 hr (reference value: 1.7 +/- 1.4%); assay type: functional
# [18] = tested on: Blumeria graminis f. sp. tritici; test: Fungicidal activity against Blumeria graminis f. sp. tritici on wheat leaves assessed as rate of spore germination measured at 12.5 ppm after 24 hr (reference value: 72.2 +/- 4.2%); assay type: functional
# [19] = tested on: Blumeria graminis f. sp. tritici; test: Fungicidal activity against Blumeria graminis f. sp. tritici on wheat leaves assessed as rate of spore germination measured at 12.5 ppm after 12 hr (reference value: 67.4 +/- 8.6%); assay type: functional
# [20] = tested on: Blumeria graminis f. sp. tritici; test: Fungicidal activity against Blumeria graminis f. sp. tritici on wheat leaves assessed as rate of spore germination measured at 12.5 ppm after 6 hr (reference value: 49.8 +/- 17.3%); assay type: functional
# [21] = tested on: Blumeria graminis f. sp. tritici; test: Fungicidal activity against Blumeria graminis f. sp. tritici on wheat leaves assessed as rate of spore germination measured at 12.5 ppm after 3 hr (reference value: 22.5 +/- 7.6%); assay type: functional
# Verticillium dahliae = test: Fungicidal activity against Verticillium dahliae assessed as inhibition of mycelial growth measured after 3 to 20 days by agar dilution method; assay type: functional, organism-based
# Venturia inaequalis = test: Fungicidal activity against Venturia inaequalis assessed as inhibition of mycelial growth measured after 3 to 20 days by agar dilution method; assay type: functional, organism-based
# Cytospora ceratosperma = test: Fungicidal activity against Valsa ceratosperma assessed as inhibition of mycelial growth measured after 3 to 20 days by agar dilution method; assay type: functional, organism-based
# Trichoderma viride = test: Fungicidal activity against Hypocrea rufa assessed as inhibition of mycelial growth measured after 3 to 20 days by agar dilution method; assay type: functional, organism-based
# Parastagonospora nodorum = test: Fungicidal activity against Phaeosphaeria nodorum assessed as inhibition of mycelial growth measured after 3 to 20 days by agar dilution method; assay type: functional, organism-based
# Taphrina deformans = test: Fungicidal activity against Taphrina deformans assessed as inhibition of mycelial growth measured after 3 to 20 days by agar dilution method; assay type: functional, organism-based
# Sclerotinia sclerotiorum = test: Fungicidal activity against Sclerotinia sclerotiorum assessed as inhibition of mycelial growth measured after 3 to 20 days by agar dilution method; assay type: functional, organism-based
# Rosellinia necatrix = test: Fungicidal activity against Rosellinia necatrix assessed as inhibition of mycelial growth measured after 3 to 20 days by agar dilution method; assay type: functional, organism-based
# Rhizoctonia solani = test: Fungicidal activity against Rhizoctonia solani assessed as inhibition of mycelial growth measured after 3 to 20 days by agar dilution method; assay type: functional, organism-based
# Pythium aphanidermatum = test: Fungicidal activity against Pythium aphanidermatum assessed as inhibition of mycelial growth measured after 3 to 20 days by agar dilution method; assay type: functional, organism-based
# [22] = tested on: Blumeria graminis f. sp. tritici; test: Fungicidal activity against Blumeria graminis f. sp. tritici on wheat leaves assessed as colony formation measured at 0.2 ppm; assay type: functional
# [23] = tested on: Blumeria graminis f. sp. tritici; test: Fungicidal activity against Blumeria graminis f. sp. tritici on wheat leaves assessed as colony formation measured at 0.8 ppm; assay type: functional
# [24] = tested on: Blumeria graminis f. sp. tritici; test: Fungicidal activity against Blumeria graminis f. sp. tritici on wheat leaves assessed as colony formation measured at 3.1 ppm; assay type: functional
# [25] = tested on: Blumeria graminis f. sp. tritici; test: Fungicidal activity against Blumeria graminis f. sp. tritici on wheat leaves assessed as colony formation measured at 12.5 ppm; assay type: functional
smiles,measurement,setting,value
O=C(Cc1ccccc1)N/C(=N\OCC1CC1)c1c(C(F)(F)F)ccc(F)c1F [CYFLUFENAMID],EC50,Pyricularia oryzae,3 ppm
same,EC50,Oculimacula yallundae,> 100 ppm
same,EC50,Phytophthora infestans,> 100 ppm
same,EC50,Phomopsis,> 100 ppm
same,EC50,Pestalotia longiseta,> 100 ppm
same,EC50,Penicillium italicum,7 ppm
same,EC50,Monilinia fructicola [1],0.01 ppm
same,EC50,Helicobasidium mompa,> 100 ppm
same,inhibition at 12.5 ppm,[2],100%
same,Activity,Monilinia fructicola [3],Active
same,Activity,Monilinia fructicola [4],Active
same,Activity,Monilinia fructicola [5],Active
same,Activity,Monilinia fructicola [6],inactive
same,inhibition at 0.2 ppm,[7],97%
same,inhibition at 0.8 ppm,[8],100%
same,inhibition at 3.1 ppm,[9],100%
same,inhibition at 0.2 ppm,[10],77.6%
same,inhibition at 0.8 ppm,[11],96.4%
same,inhibition at 3.1 ppm,[12],99.4%
same,inhibition at 12.5 ppm,[13],100%
same,Activity,[14],87.9%
same,Activity,[15],28.1%
same,Activity,[16],0.4%
same,Activity,[17],0.3%
same,Activity,[18],61.5%
same,Activity,[19],60.7%
same,Activity,[20],47.6%
same,Activity,[21],19.8%
same,EC50,Verticillium dahliae,> 100 ppm
same,EC50,Venturia inaequalis,> 100 ppm
same,EC50,Cytospora ceratosperma,8 ppm
same,EC50,Trichoderma viride,> 100 ppm
same,EC50,Parastagonospora nodorum,> 100 ppm
same,EC50,Taphrina deformans,3 ppm
same,EC50,Sclerotinia sclerotiorum,1 ppm
same,EC50,Rosellinia necatrix,0.7 ppm
same,EC50,Rhizoctonia solani,> 100 ppm
same,EC50,Pythium aphanidermatum,> 100 ppm
same,inhibition at 0.2 ppm,[22],81.2%
same,inhibition at 0.8 ppm,[23],96.9%
same,inhibition at 3.1 ppm,[24],100%
same,inhibition at 12.5 ppm,[25],100%
